# From US9924714B2, “Impregnatable matrix of plant, animal or synthetic origin or mixtures of same, containing a uniformly distributed antimicrobial compound, method for impregnating said matrix with a compound, and use thereof in the production of antimicrobial elements” (COMPAÑIA MINERA SAN GERONIMO, priority 2013, dated 2018)
# How the values were obtained:
# Type in all cases: cell-based
# [1] = system: Staphylococcus aureus ATCC25923; experiment: Disc growth inhibition halo test (Example 2)
# [2] = system: Staphylococcus epidermidis ATCC25923; experiment: Disc growth inhibition halo test (Example 2)
# [3] = system: Streptococcus pneumoniae ATCC14325; experiment: Disc growth inhibition halo test (Example 2)
# [4] = system: Streptococcus pyogenes ATCC2367; experiment: Disc growth inhibition halo test (Example 2)
# [5] = system: Enterococcus faecium ISP133/04; experiment: Disc growth inhibition halo test (Example 2)
# [6] = system: Enterococcus faecalis ATCC29212; experiment: Disc growth inhibition halo test (Example 2)
# [7] = system: Escherichia coli ATCC25922; experiment: Disc growth inhibition halo test (Example 2)
# [8] = system: Klebsiella pneumoniae ATCC4352; experiment: Disc growth inhibition halo test (Example 2)
# [9] = system: Pseudomonas aeruginosa PAOI; experiment: Disc growth inhibition halo test (Example 2)
# [10] = system: Acinetobacter baumanii UDP456; experiment: Disc growth inhibition halo test (Example 2)
# [11] = system: Citrobacter freundii ISP1949/99; experiment: Disc growth inhibition halo test (Example 2)
# [12] = system: Enterobacter aerogenes ATCC13048; experiment: Disc growth inhibition halo test (Example 2)
# [13] = system: 12 bacterial strains; experiment: Antibacterial activity of four copper compounds, summary (Example 2); details: discs 200-800 μg, summary in words
smiles,measurement,setting,value
"O=P([O-])([O-])[O-].[Cu+2].[Cu+2].[OH-] [Copper hydroxyphosphate compound (II), copper hydroxyphosphate (II)]",Growth inhibition zone,[1]; 200 μg on 5 mm disc,5.0 mm
same,Growth inhibition zone,[1]; 400 μg on 5 mm disc,5.0 mm
same,Growth inhibition zone,[1]; 600 μg on 5 mm disc,5.0 mm
same,Growth inhibition zone,[1]; 800 μg on 5 mm disc,5.0 mm
same,Growth inhibition zone,[2]; 200 μg on 5 mm disc,5.0 mm
same,Growth inhibition zone,[2]; 400 μg on 5 mm disc,5.0 mm
same,Growth inhibition zone,[2]; 600 μg on 5 mm disc,5.6 ± 0.5 mm
same,Growth inhibition zone,[2]; 800 μg on 5 mm disc,6.3 ± 1.1 mm
same,Growth inhibition zone,[3]; 200 μg on 5 mm disc,5.0 mm
same,Growth inhibition zone,[3]; 400 μg on 5 mm disc,5.0 mm
same,Growth inhibition zone,[3]; 600 μg on 5 mm disc,5.0 mm
same,Growth inhibition zone,[3]; 800 μg on 5 mm disc,5.0 mm
same,Growth inhibition zone,[4]; 200 μg on 5 mm disc,5.0 mm
same,Growth inhibition zone,[4]; 400 μg on 5 mm disc,5.0 mm
same,Growth inhibition zone,[4]; 600 μg on 5 mm disc,5.0 mm
same,Growth inhibition zone,[4]; 800 μg on 5 mm disc,8.6 ± 0.6 mm
same,Growth inhibition zone,[5]; 200 μg on 5 mm disc,5.0 mm
same,Growth inhibition zone,[5]; 400 μg on 5 mm disc,5.0 mm
same,Growth inhibition zone,[5]; 600 μg on 5 mm disc,5.0 mm
same,Growth inhibition zone,[5]; 800 μg on 5 mm disc,5.0 mm
same,Growth inhibition zone,[6]; 200 μg on 5 mm disc,5.0 mm
same,Growth inhibition zone,[6]; 400 μg on 5 mm disc,5.0 mm
same,Growth inhibition zone,[6]; 600 μg on 5 mm disc,5.0 mm
same,Growth inhibition zone,[6]; 800 μg on 5 mm disc,5.0 mm
same,Growth inhibition zone,[7]; 200 μg on 5 mm disc,5.0 mm
same,Growth inhibition zone,[7]; 400 μg on 5 mm disc,5.0 mm
same,Growth inhibition zone,[7]; 600 μg on 5 mm disc,5.0 mm
same,Growth inhibition zone,[7]; 800 μg on 5 mm disc,5.0 mm
same,Growth inhibition zone,[8]; 200 μg on 5 mm disc,5.0 mm
same,Growth inhibition zone,[8]; 400 μg on 5 mm disc,5.0 mm
same,Growth inhibition zone,[8]; 600 μg on 5 mm disc,5.0 mm
same,Growth inhibition zone,[8]; 800 μg on 5 mm disc,5.0 mm
same,Growth inhibition zone,[9]; 200 μg on 5 mm disc,5.0 mm
same,Growth inhibition zone,[9]; 400 μg on 5 mm disc,5.0 mm
same,Growth inhibition zone,[9]; 600 μg on 5 mm disc,5.0 mm
same,Growth inhibition zone,[9]; 800 μg on 5 mm disc,5.0 mm
same,Growth inhibition zone,[10]; 200 μg on 5 mm disc,5.0 mm
same,Growth inhibition zone,[10]; 400 μg on 5 mm disc,8.6 ± 0.6 mm
same,Growth inhibition zone,[10]; 600 μg on 5 mm disc,7.3 ± 2 mm
same,Growth inhibition zone,[10]; 800 μg on 5 mm disc,7.6 ± 2.3 mm
same,Growth inhibition zone,[11]; 200 μg on 5 mm disc,5.0 mm
same,Growth inhibition zone,[11]; 400 μg on 5 mm disc,5.0 mm
same,Growth inhibition zone,[11]; 600 μg on 5 mm disc,5.0 mm
same,Growth inhibition zone,[11]; 800 μg on 5 mm disc,5.0 mm
same,Growth inhibition zone,[12]; 200 μg on 5 mm disc,5.0 mm
same,Growth inhibition zone,[12]; 400 μg on 5 mm disc,5.0 mm
same,Growth inhibition zone,[12]; 600 μg on 5 mm disc,5.0 mm
same,Growth inhibition zone,[12]; 800 μg on 5 mm disc,5.0 mm
"[Cl-].[Cu+2].[Cu+2].[OH-].[OH-].[OH-] [copper oxychloride compound (II), copper oxychloride (II)]",Growth inhibition zone,[1]; 200 μg on 5 mm disc,6.0 ± 1.0 mm
same,Growth inhibition zone,[1]; 400 μg on 5 mm disc,10.3 ± 0.6 mm
same,Growth inhibition zone,[1]; 600 μg on 5 mm disc,11.7 ± 0.6 mm
same,Growth inhibition zone,[1]; 800 μg on 5 mm disc,14.0 ± 1.0 mm
same,Growth inhibition zone,[2]; 200 μg on 5 mm disc,12.0 ± 0.6 mm
same,Growth inhibition zone,[2]; 400 μg on 5 mm disc,14.3 ± 0.6 mm
same,Growth inhibition zone,[2]; 600 μg on 5 mm disc,13.7 ± 1.5 mm
same,Growth inhibition zone,[2]; 800 μg on 5 mm disc,14.6 ± 0.6 mm
same,Growth inhibition zone,[3]; 200 μg on 5 mm disc,5.0 ± 1.0 mm
same,Growth inhibition zone,[3]; 400 μg on 5 mm disc,8.0 ± 0.7 mm
same,Growth inhibition zone,[3]; 600 μg on 5 mm disc,9.0 ± 1.0 mm
same,Growth inhibition zone,[3]; 800 μg on 5 mm disc,11.0 ± 1.2 mm
same,Growth inhibition zone,[4]; 200 μg on 5 mm disc,5.0 ± 1.0 mm
same,Growth inhibition zone,[4]; 400 μg on 5 mm disc,6.0 ± 1.0 mm
same,Growth inhibition zone,[4]; 600 μg on 5 mm disc,7.0 ± 1.2 mm
same,Growth inhibition zone,[4]; 800 μg on 5 mm disc,8.0 ± 1.4 mm
same,Growth inhibition zone,[5]; 200 μg on 5 mm disc,6.0 ± 1.0 mm
same,Growth inhibition zone,[5]; 400 μg on 5 mm disc,6.0 ± 1.0 mm
same,Growth inhibition zone,[5]; 600 μg on 5 mm disc,6.0 ± 1.0 mm
same,Growth inhibition zone,[5]; 800 μg on 5 mm disc,6.0 ± 1.0 mm
same,Growth inhibition zone,[6]; 200 μg on 5 mm disc,6.0 ± 1.0 mm
same,Growth inhibition zone,[6]; 400 μg on 5 mm disc,6.0 ± 1.0 mm
same,Growth inhibition zone,[6]; 600 μg on 5 mm disc,6.0 ± 1.0 mm
same,Growth inhibition zone,[6]; 800 μg on 5 mm disc,6.0 ± 1.0 mm
same,Growth inhibition zone,[7]; 200 μg on 5 mm disc,13.3 ± 1.4 mm
same,Growth inhibition zone,[7]; 400 μg on 5 mm disc,13.0 ± 0.7 mm
same,Growth inhibition zone,[7]; 600 μg on 5 mm disc,15.0 ± 0.7 mm
same,Growth inhibition zone,[7]; 800 μg on 5 mm disc,13.3 ± 0.7 mm
same,Growth inhibition zone,[8]; 200 μg on 5 mm disc,7.3 ± 0.6 mm
same,Growth inhibition zone,[8]; 400 μg on 5 mm disc,8.7 ± 0.6 mm
same,Growth inhibition zone,[8]; 600 μg on 5 mm disc,9.7 ± 0.6 mm
same,Growth inhibition zone,[8]; 800 μg on 5 mm disc,10.0 mm
same,Growth inhibition zone,[9]; 200 μg on 5 mm disc,6.3 ± 1.5 mm
same,Growth inhibition zone,[9]; 400 μg on 5 mm disc,6.7 ± 1.2 mm
same,Growth inhibition zone,[9]; 600 μg on 5 mm disc,8.3 ± 0.6 mm
same,Growth inhibition zone,[9]; 800 μg on 5 mm disc,3.3 ± 1.7 mm
same,Growth inhibition zone,[10]; 200 μg on 5 mm disc,11.7 ± 0.6 mm
same,Growth inhibition zone,[10]; 400 μg on 5 mm disc,15.7 ± 0.6 mm
same,Growth inhibition zone,[10]; 600 μg on 5 mm disc,17.0 ± 1.0 mm
same,Growth inhibition zone,[10]; 800 μg on 5 mm disc,19.7 ± 0.6 mm
same,Growth inhibition zone,[11]; 200 μg on 5 mm disc,8.0 ± 1.0 mm
same,Growth inhibition zone,[11]; 400 μg on 5 mm disc,10.7 ± 1.5 mm
same,Growth inhibition zone,[11]; 600 μg on 5 mm disc,11.3 ± 0.6 mm
same,Growth inhibition zone,[11]; 800 μg on 5 mm disc,11.3 ± 1.5 mm
same,Growth inhibition zone,[12]; 200 μg on 5 mm disc,7.3 ± 1.5 mm
same,Growth inhibition zone,[12]; 400 μg on 5 mm disc,3.7 ± 1.5 mm
same,Growth inhibition zone,[12]; 600 μg on 5 mm disc,9.7 ± 0.6 mm
same,Growth inhibition zone,[12]; 800 μg on 5 mm disc,9.7 ± 1.5 mm
same,antibacterial activity,[13],"antibacterial activity against Staphylococcus aureus, Staphylococcus epidermidis, Streptococcus pyogenes, Escherichia coli and Acinetobacter baumannii"
